# Data taken from the OPERA property sets (Mansouri et al. 2018).
# Conditions: not given
SMILES,boiling point,log10 vapour pressure (mmHg),melting point,ready biodegradability,log10 Henry constant (atm·m³/mol),log10 Koc (L/kg),log10 Koa
C=CCN=C=S,152 °C,0.568,-80 °C,–,–,–,–
CC(=O)F,20.8 °C,–,-84 °C,–,–,–,–
CCCCCCCCCCCCCCCCCC(=O)O,383 °C,-6.14,68.8 °C,readily biodegradable,–,–,–
CCCCc1ccncc1,209 °C,–,–,–,–,–,–
C=C(C)CC(C)=O,124 °C,1.18,-72.6 °C,–,–,–,–
COC(=O)C1CCCCC1,183 °C,–,–,–,–,–,–
CCOC(=O)C(NC=O)C(=O)OCC,–,–,48.5 °C,–,–,–,–
CCCCCCCCCCCCCCCC(=O)OC/C=C(C)/C=C/C=C(C)/C=C/C1=C(C)CCCC1(C)C,–,–,28.5 °C,–,–,–,–
ClC(C(Cl)(Cl)Cl)C(Cl)(Cl)Cl,249 °C,–,11 °C,–,–,–,–
C[Se]C,55 °C,2.38,–,–,-2.76,–,–
CCC(COC(=O)c1cc(OC)c(OC)c(OC)c1)(c1ccccc1)N(C)C (stereo not given),–,–,79 °C,–,–,–,–
Cc1cccc(C)c2cc(C(C)C)cc1-2,–,–,32.3 °C,–,–,–,–
Clc1ccc2c(c1)Oc1cc(Cl)c(Cl)c(Cl)c1O2,–,-8.12,172 °C,–,-5.12,–,–
CCOc1ccc2c3c1O[C@H]1[C@@H](O)C=C[C@H]4[C@@H](C2)N(C)CC[C@@]341,–,–,200 °C,–,–,–,–
CCOC(C)CC (stereo not given),81 °C,–,–,–,–,–,–
C=C[C@H]1CNCC[C@H]1CCC(=O)c1ccnc2ccc(OC)cc12,–,–,60 °C,–,–,–,–
CCC(CC)C(C)(C)CC,163 °C,–,–,–,–,–,–
C1O[C@@H]1[C@@H]1CO1,144 °C,–,3.5 °C,–,–,–,–
CC(=O)N1CCOCC1,–,–,14.5 °C,–,–,–,–
C/C(=N\C#N)N(C)Cc1ccc(Cl)nc1,–,–,98.9 °C,–,–,–,–
CC(C)CC(=O)OC(C)C,142 °C,–,–,–,–,–,–
CCCCCC[Si](Cl)(Cl)Cl,190 °C,–,–,–,–,–,–
O=C(Nc1ccccc1Cl)c1ccccc1,–,–,99 °C,–,–,–,–
CN(C)c1nc(=O)n(C2CCCCC2)c(=O)n1C,–,-6.65,116 °C,–,–,1.73,–
CC(C)(C)C(=O)C(Oc1ccc(Cl)cc1)n1cncn1 (stereo not given),–,-7.82,82 °C,–,–,2.71,–
Cc1cc2ncn(C3OC(CO)C(O)C3O)c2cc1C (stereo not given),–,–,198 °C,–,–,–,–

SMILES,boiling point,log10 vapour pressure (mmHg),melting point,ready biodegradability,log10 Henry constant (atm·m³/mol),log10 Koc (L/kg),log10 Koa
COc1ccccc1CCN,236 °C,–,–,–,–,–,–
CCCC(O)CO (stereo not given),206 °C,–,104 °C,–,–,–,–
CC(=O)c1c(F)c(F)c(F)c(F)c1F,–,–,130 °C,–,–,–,–
Cc1cc(C)c(C(=O)O)cc1C,–,–,152 °C,–,–,–,–
Clc1c(Cl)c(Cl)c2c(oc3ccccc32)c1Cl,–,–,169 °C,–,–,–,–
CCOc1ccc(C(=O)O)cc1,–,–,198 °C,–,–,–,–
C=NCC#N,–,–,129 °C,–,–,–,–
Nc1c(F)c(F)c(C(F)(F)F)c(F)c1F,186 °C,–,–,–,–,–,–
COc1c(C)cccc1C,182 °C,–,–,–,–,–,–
NCCN,117 °C,1.08,11.1 °C,readily biodegradable,-8.76,–,–
COC(=O)c1ccc([N+](=O)[O-])cc1,–,–,95 °C,–,–,–,–
CCCCCCCC(=O)N(CCO)CCO,–,–,–,readily biodegradable,–,–,–
Nc1c(C(=O)O)ccc2c1C(=O)c1ccccc1C2=O,–,–,296 °C,–,–,–,–
CCC1(C)CCCC1,122 °C,–,-144 °C,–,–,–,–
CCOCCOCCOCCO,256 °C,-2,-18.7 °C,readily biodegradable,–,–,–
CCCC=CCCCCC,171 °C,–,–,–,–,–,–
BrC1CCC(Br)C(Br)CCC1Br (stereo not given),–,–,–,not readily biodegradable,–,–,–
CCCCC(=O)OCC(C)C,179 °C,–,–,–,–,–,–
Cc1cncc(C)n1,156 °C,–,47.5 °C,–,–,–,–
CCCCCCOC(=O)CCCCCCCC(=O)OCCCCCC,–,–,-8 °C,–,–,–,–
O=CNc1ccccc1,271 °C,-2.45,46 °C,–,–,–,–
Fc1cccc(Br)c1,150 °C,–,–,–,–,–,–
Cc1ccc(O)c(C(=O)O)c1,–,–,151 °C,–,–,–,–
NCCN1CCOCC1,205 °C,–,25.6 °C,–,–,–,–
Clc1cc(Cl)c2c(Cl)cccc2c1Cl,–,–,–,–,–,–,8.58
COC(=O)c1ccc2cc(C(=O)OC)ccc2c1,–,–,–,not readily biodegradable,–,–,–

SMILES,boiling point,log10 vapour pressure (mmHg),melting point,ready biodegradability,log10 Henry constant (atm·m³/mol),log10 Koc (L/kg),log10 Koa
Cc1ccccc1OP(=O)(Oc1ccccc1C)Oc1ccccc1C,–,–,–,readily biodegradable,–,–,–
C=CCc1cccc(C)c1O,232 °C,–,–,–,–,–,–
Oc1c(Cl)c(O)c(Cl)c(O)c1Cl,–,–,136 °C,–,–,–,–
CCNc1ccccc1,203 °C,-0.69,-63.5 °C,not readily biodegradable,-5.01,–,–
C[N+](C)(C)CCOC(=O)NCCCCCCNC(=O)OCC[N+](C)(C)C.[Br-].[Br-],–,–,175 °C,–,–,–,–
CC(=O)OCCCOC(C)=O,210 °C,–,–,–,–,–,–
OCC(Br)(Br)Br,–,–,81 °C,–,–,–,–
c1ccc(CCCc2ccncc2)cc1,322 °C,–,–,–,–,–,–
O=[N+]([O-])c1cccc([N+](=O)[O-])c1Cl,315 °C,–,88 °C,–,–,–,–
C#CC1(OC(N)=O)CCCCC1,–,–,96 °C,readily biodegradable,–,–,–
CC(Br)C(C)(C)Br (stereo not given),–,–,7 °C,–,–,–,–
COC(=O)CBr,132 °C,–,–,–,–,–,–
CCOC(=O)C#CC(=O)OCC,–,–,1.5 °C,–,–,–,–
Cc1cc(O)c(C(C)(C)C)cc1C(C)(C)C,282 °C,–,62.1 °C,–,–,–,–
Cc1ccc2oc(=O)ccc2c1,304 °C,–,76.5 °C,–,–,–,–
C[C@]12CCC(=O)C(O)=C1CC[C@@H]1[C@@H]2CC[C@@]2(C)[C@H]1CC[C@]2(C)O,–,–,170 °C,–,–,–,–
ClCC(Cl)(Cl)Cl,130 °C,1.08,-70.2 °C,–,-2.6,–,–
CCC(C)OC=O (stereo not given),97 °C,–,–,–,–,–,–
C=C(CCl)CCl,138 °C,–,-14 °C,–,–,–,–
N=C(N)NC(=O)Cc1c(Cl)cccc1Cl,–,–,226 °C,–,–,–,–
CC=CC(C)C(=O)O (stereo not given),199 °C,–,–,–,–,–,–
CP(C)C,37.5 °C,–,-85 °C,–,–,–,–
Nc1ccc(N)cc1,267 °C,–,146 °C,not readily biodegradable,–,–,–
CCCCNCCCC,160 °C,0.413,-62 °C,readily biodegradable,-4.05,–,–
O=[N+]([O-])c1ccccc1F,–,–,-6 °C,–,–,–,–
O=[N+]([O-])c1ccccc1-c1ccccc1[N+](=O)[O-],305 °C,–,126 °C,–,–,–,–

SMILES,boiling point,log10 vapour pressure (mmHg),melting point,ready biodegradability,log10 Henry constant (atm·m³/mol),log10 Koc (L/kg),log10 Koa
CC(C(=O)[O-])c1ccccc1 (stereo not given),261 °C,–,–,–,–,–,–
N#CCCN(CCOC(=O)c1ccccc1)c1ccc(N=Nc2ccc([N+](=O)[O-])cc2)cc1,–,–,–,not readily biodegradable,–,–,–
C=C(C)OC,35 °C,2.71,–,–,–,–,–
CCOC(=O)CC(O)(CC(=O)OCC)C(=O)OCC,294 °C,–,–,–,–,–,–
N#Cc1cc([N+](=O)[O-])c(Cl)c([N+](=O)[O-])c1,–,–,141 °C,–,–,–,–
CCCNc1ccccc1,222 °C,–,–,–,–,–,–
Cc1ccnc(C)n1,150 °C,–,-4 °C,–,–,–,–
Clc1ccc(-c2nc3c4ccccc4ccn3n2)cc1,–,–,239 °C,–,–,–,–
NC(=O)Nc1cccc(Cl)c1,–,–,–,–,–,2.01,–
COc1cc(OC)nc(NC(=O)NS(=O)(=O)c2ncccc2C(F)(F)F)n1,–,–,180 °C,–,–,–,–
C#CCC,8 °C,3.15,-126 °C,–,–,–,–
Cn1c(=O)c2c(ncn2C)n(C)c1=O,–,–,238 °C,–,–,–,–
CCCCCCCCCCCCCCCc1cccc(O)c1,–,–,53.5 °C,readily biodegradable,–,–,–
FCCF,30.7 °C,2.79,–,–,–,–,–
CCCCOc1ccc(C)cc1,230 °C,–,–,–,–,–,–
OC(Cn1cncn1)(c1ccc(F)cc1)c1ccccc1F (stereo not given),–,-10.3,130 °C,–,–,1.88,–
C[Si]1(C)O[Si](C)(C)O[Si](C)(C)O[Si](C)(C)O1,176 °C,0.0212,17.5 °C,–,1.08,–,–
CC1=CCC(C(C)C)=CC1,183 °C,0.0362,-10 °C,readily biodegradable,-1.59,–,–
CCOC(=O)C#Cc1ccccc1,265 °C,–,–,–,–,–,–
COC(=O)[C@@H](N)Cc1ccc(O)cc1,–,–,137 °C,–,–,–,–
C=C(C)C(=O)O,163 °C,-0.0044,16 °C,readily biodegradable,-6.41,–,–
CC(Cl)C(C)(C)O (stereo not given),142 °C,–,–,–,–,–,–
Nc1nc(N)c2nc(-c3ccccc3)c(N)nc2n1,–,–,316 °C,–,–,–,–
CCCCCCCCCCCCCCCCc1ccccc1,385 °C,-5.45,27 °C,–,–,–,–
CNCc1ccccc1,180 °C,–,–,–,–,–,–
ClC1=C(Cl)C2(Cl)C3C(Cl)C=CC3C1(Cl)C2(Cl)Cl (stereo not given),310 °C,-3.4,95.5 °C,not readily biodegradable,-3.53,4.38,7.64

# Same assay, conditions: fish
SMILES,log10 biotransformation half-life (days),log10 BCF
Cc1ccc(-c2ccc(C)c(C)c2)cc1C,-0.01,–
Cc1ccccc1OP(=O)(Oc1ccccc1C)Oc1ccccc1C,0.5,–
CCNc1ccccc1,-0.65,1.11
Clc1ccc(-c2c(Cl)ccc(Cl)c2Cl)c(Cl)c1,2.61,–
C[Si]1(C)O[Si](C)(C)O[Si](C)(C)O[Si](C)(C)O1,1.88,–
ClC1=C(Cl)C2(Cl)C3C(Cl)C=CC3C1(Cl)C2(Cl)Cl (stereo not given),1.45,3.94
